The source of these data is patent publication US10538495B2, “Modulators of indoleamine 2,3-dioxygenase” (GLAXOSMITHKLINE INTELLECTUAL PROPERTY DEVELOPMENT LIMITED, priority 2016, dated 2020).

Assay [1] deals with T1, indoleamine 2,3-dioxygenase (IDO1) (Homo sapiens, UniProt P14902). Nature of the assay: PBMC IDOi assay (kynurenine by mass spectrometry). In kind it is cell-based. Conditions: IFN-γ and LPS stimulated human PBMC, 2 days, kynurenine detected by mass spectrometry; read-out: PBMC pIC50 (converted). How it is done:
(§1) Brief descriptions of the cellular assays are provided following the table.
(§2) Compounds of the present invention were tested via high-throughput cellular assays utilizing detection of kynurenine via mass spectrometry and cytotoxicity as end-points. For the mass spectrometry and cytotoxicity assays, human peripheral blood mononuclear cells (PBMC) (PB003F; AllCells®, Alameda, Calif.) were stimulated with human interferon-γ (IFN-γ) (Sigma-Aldrich Corporation, St. Louis, Mo.) and lipopolysaccharide from Salmonella minnesota (LPS) (Invivogen, San Diego, Calif.) to induce the expression of indoleamine 2,3-dioxygenase (IDO1). Compounds with IDO1 inhibitory properties decreased the amount of kynurenine produced by the cells via the tryptophan catabolic pathway. Cellular toxicity due to the effect of compound treatment was measured using CellTiter-Glo® reagent (CTG) (Promega Corporation, Madison, Wis.), which is based on luminescent detection of ATP, an indicator of metabolically active cells.
(§3) In preparation for the assays, test compounds were serially diluted 3-fold in DMSO from a typical top concentration of 5 mM and plated at 0.5 μL in 384-well, polystyrene, clear bottom, tissue culture treated plates with lids (Greiner Bio-One, Kremsmünster, Austria) to generate 11-point dose response curves. Low control wells (0% kynurenine or 100% cytotoxicity) contained either 0.5 μL of DMSO in the presence of unstimulated (−IFN-γ/−LPS) PBMCs for the mass spectrometry assay or 0.5 μL of DMSO in the absence of cells for the cytotoxicity assay, and high control wells (100% kynurenine or 0% cytotoxicity) contained 0.5 μL of DMSO in the presence of stimulated (+IFN-γ/+LPS) PBMCs for both the mass spectrometry and cytotoxicity assays.
Frozen stocks of PBMCs were washed and recovered in RPMI 1640 medium (Thermo Fisher Scientific, Inc., Waltham, Mass.) supplemented with 10% v/v heat-inactivated fetal bovine serum (FBS) (Thermo Fisher Scientific, Inc., Waltham, Mass.), and 1× penicillin-streptomycin antibiotic solution (Thermo Fisher Scientific, Inc., Waltham, Mass.). The cells were diluted to 1,000,000 cells/mL in the supplemented RPMI 1640 medium. 50 μL of either the cell suspension, for the mass spectrometry assay, or medium alone, for the cytotoxicity assay, were added to the low control wells, on the previously prepared 384-well compound plates, resulting in 50,000 cells/well or 0 cells/well respectively. IFN-γ and LPS were added to the remaining cell suspension at final concentrations of 100 ng/ml and 50 ng/ml respectively, and 50 μL of the stimulated cells were added to all remaining wells on the 384-well compound plates. The plates, with lids, were then placed in a 37° C., 5% CO2 humidified incubator for 2 days.
Following incubation, the 384-well plates were removed from the incubator and allowed to equilibrate to room temperature for 30 minutes. For the cytotoxicity assay, CellTiter-Glo® was prepared according to the manufacturer's instructions, and 40 μL were added to each plate well. After a twenty minute incubation at room temperature, luminescence was read on an EnVision® Multilabel Reader (PerkinElmer Inc., Waltham, Mass.). For the mass spectrometry assay, 10 μL of supernatant from each well of the compound-treated plates were added to 40 μL of acetonitrile, containing 10 μM of an internal standard for normalization, in 384-well, polypropylene, V-bottom plates (Greiner Bio-One, Kremsmünster, Austria) to extract the organic analytes. Following centrifugation at 2000 rpm for 10 minutes, 10 μL from each well of the acetonitrile extraction plates were added to 90 μL of sterile, distilled H2O in 384-well, polypropylene, V-bottom plates for analysis of kynurenine and the internal standard on the RapidFire 300 (Agilent Technologies, Santa Clara, Calif.) and 4000 QTRAP MS (SCIEX, Framingham, Mass.). […]

Assay [2] has as its target T1, indoleamine 2,3-dioxygenase (IDO1). The assay can be described thus: HeLa IDOi assay (kynurenine by mass spectrometry). Conditions: IFN-γ stimulated HeLa cells, 2 days, kynurenine detected by mass spectrometry; read-out: HeLa pIC50 (converted). Details: human epithelial HeLa cells (CCL-2; host or cells: HeLa cells stimulated with human IFN-γ. The class given is cell-based. The method, then:
as §1
as §2, with “epithelial HeLa” for “peripheral blood mononuclear”, “(CCL-2; ATCC®, Manassas, Va.)” for “(PBMC) (PB003F; AllCells®, Alameda, Calif.)”, “Mo.)” for “Mo.) and lipopolysaccharide from Salmonella minnesota (LPS) (Invivogen, San Diego, Calif.)”
as §3, with “(−IFN-γ) HeLa cells” for “(−IFN-γ/−LPS) PBMCs”, “(+IFN-γ) HeLa cells” for “(+IFN-γ/+LPS) PBMCs”
Frozen stocks of HeLa cells were washed and recovered in DMEM high glucose medium with HEPES (Thermo Fisher Scientific, Inc., Waltham, Mass.) supplemented with 10% v/v certified fetal bovine serum (FBS) (Thermo Fisher Scientific, Inc., Waltham, Mass.), and 1× penicillin-streptomycin antibiotic solution (Thermo Fisher Scientific, Inc., Waltham, Mass.). The cells were diluted to 100,000 cells/mL in the supplemented DMEM medium. 50 μL of either the cell suspension, for the mass spectrometry assay, or medium alone, for the cytotoxicity assay, were added to the low control wells, on the previously prepared 384-well compound plates, resulting in 5,000 cells/well or 0 cells/well respectively. IFN-γ was added to the remaining cell suspension at a final concentration of 10 nM, and 50 μL of the stimulated cells were added to all remaining wells on the 384-well compound plates. The plates, with lids, were then placed in a 37° C., 5% CO2 humidified incubator for 2 days.
Following incubation, the 384-well plates were removed from the incubator and allowed to equilibrate to room temperature for 30 minutes. For the cytotoxicity assay, CellTiter-Glo® was prepared according to the manufacturer's instructions, and 10 μL were added to each plate well. After a twenty minute incubation at room temperature, luminescence was read on an EnVision® Multilabel Reader (PerkinElmer Inc., Waltham, Mass.). For the mass spectrometry assay, 10 μL of supernatant from each well of the compound-treated plates were added to 40 μL of acetonitrile, containing 10 μM of an internal standard for normalization, in 384-well, polypropylene, V-bottom plates (Greiner Bio-One, Kremsmünster, Austria) to extract the organic analytes. Following centrifugation at 2000 rpm for 10 minutes, 10 μL from each well of the acetonitrile extraction plates were added to 90 μL of sterile, distilled H2O in 384-well, polypropylene, V-bottom plates for analysis of kynurenine and the internal standard on the RapidFire 300 (Agilent Technologies, Santa Clara, Calif.) and 4000 QTRAP MS (SCIEX, Framingham, Mass.). MS data were integrated using Agilent Technologies' RapidFire Integrator software, and data were normalized for analysis as a ratio of kynurenine to the internal standard. […]

T1 sequence (P14902 whole entry): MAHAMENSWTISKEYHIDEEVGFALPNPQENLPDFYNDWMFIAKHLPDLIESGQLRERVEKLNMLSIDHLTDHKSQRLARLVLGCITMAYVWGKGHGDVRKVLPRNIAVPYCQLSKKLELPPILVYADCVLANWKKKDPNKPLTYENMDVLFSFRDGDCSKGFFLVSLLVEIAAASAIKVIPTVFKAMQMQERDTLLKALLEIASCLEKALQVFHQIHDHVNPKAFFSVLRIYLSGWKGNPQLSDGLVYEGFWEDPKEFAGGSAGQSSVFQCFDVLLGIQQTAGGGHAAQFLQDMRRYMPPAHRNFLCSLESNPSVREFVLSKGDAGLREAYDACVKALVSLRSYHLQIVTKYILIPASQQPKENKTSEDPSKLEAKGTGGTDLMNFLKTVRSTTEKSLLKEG

For `Cc1ccc(CC(=O)Nc2cc(-c3ccccc3-c3nn[nH]n3)ccc2SC(C)(C)C)cc1` [Example 1, N-(4-(tert-butylthio)-2′-(2H-tetrazol-5-yl)-[1,1′-biphenyl]-3-yl)-2-(p-tolyl)acetamide], the figures for the IC50 in assay [1] and in assay [2] were 12.6 nM and 15.8 nM, respectively. With `Cc1ccc(CC(=O)Nc2cc(-c3ccccc3C(=O)O)ccc2SC(C)(C)C)cc1` [Example 4, 4′-(tert-Butylthio)-3′-(2-(p-tolyl)acetamido)-[1,1′-biphenyl]-2-carboxylic acid], the IC50 in assay [1] was 794 nM; in assay [2] it was 316 nM. In the case of `Cc1ccc(CC(=O)Nc2cc(-c3ccccc3-c3nn[nH]n3)ccc2Sc2ccccc2)cc1` [Example 10], the IC50 was 126 nM in assay [1] and 251 nM in assay [2].

As for `Cc1ccc(NC(=O)Nc2cc(-c3ccccc3-c3nn[nH]n3)ccc2SC(C)(C)C)cc1` [Example 13, 1-(4-(tert-Butylthio)-2′-(2H-tetrazol-5-yl)-[1,1′-biphenyl]-3-yl)-3-(p-tolyl)urea], the IC50 in assay [1] is 79.4 nM; in assay [2] it was 398 nM. Take `Cc1ccc(NC(=O)Nc2cc(-c3ccccc3C(=O)O)ccc2SC(C)(C)C)cc1` [Example 14, 4′-(tert-Butylthio)-3′-(3-(p-tolyl)ureido)-[1,1′-biphenyl]-2-carboxylic Acid]: the IC50 in assay [1] is 1580 nM. With `Cc1ccc(CC(=O)Nc2cc(-c3ccccc3-c3nn[nH]n3)ccc2S(=O)(=O)c2ccccc2)cc1` [Example 15, N-(4-(phenylsulfonyl)-2′-(2H-tetrazol-5-yl)-[1,1′-biphenyl]-3-yl)-2-(p-tolyl)acetamide], the IC50 in assay [1] and in assay [2] was 2000 nM throughout. For the molecule `Cc1ccccc1CC(=O)Nc1cc(-c2ccccc2-c2nn[nH]n2)ccc1SC(C)(C)C` [Example 19, N-(4-(tert-butylthio)-2′-(2H-tetrazol-5-yl)-[1,1′-biphenyl]-3-yl)-2-(o-tolyl)acetamide], the IC50 is 10 nM in assay [1] and 15.8 nM in assay [2]. Regarding `Cc1cccc(CC(=O)Nc2cc(-c3ccccc3-c3nn[nH]n3)ccc2SC(C)(C)C)c1` [Example 20, N-(4-(tert-butylthio)-2′-(2H-tetrazol-5-yl)-[1,1′-biphenyl]-3-yl)-2-(m-tolyl)acetamide], the IC50 was 20 nM in assay [1] and 25.1 nM in assay [2].

Take `CC(C)c1ccc(CC(=O)Nc2cc(-c3ccccc3-c3nn[nH]n3)ccc2SC(C)(C)C)cc1` [Example 27, N-(4-(tert-butylthio)-2′-(2H-tetrazol-5-yl)-[1,1′-biphenyl]-3-yl)-2-(4-isopropylphenyl)acetamide]: the values for the IC50 in assay [1] and in assay [2] were 3.16 nM and 3.98 nM, respectively. As for `CC(C)(C)Sc1ccc(-c2ccccc2-c2nn[nH]n2)cc1NC(=O)Cc1ccc(Cl)cc1` [Example 34, N-(4-(tert-butylthio)-2′-(2H-tetrazol-5-yl)-[1,1′-biphenyl]-3-yl)-2-(4-chlorophenyl)acetamide], the IC50 was 25.1 nM in assay [1] and 79.4 nM in assay [2].

As for `Cc1ccc(CC(=O)Nc2cc(C(C)CC(=O)O)ccc2SC(C)(C)C)cc1` (stereo not shown) [Example 44, 3-(4-(tert-Butylthio)-3-(2-(p-tolyl)acetamido)phenyl)butanoic Acid], in assay [1], the IC50 was 3980 nM. As to `CC(=O)OCn1nnnc1-c1ccccc1-c1ccc(SC(C)(C)C)c(NC(=O)Cc2ccc(C)cc2)c1` [Example 58, (5-(4′-(tert-butylthio)-3′-(2-(p-tolyl)acetamido)-[1,1′-biphenyl]-2-yl)-1H-tetrazol-1-yl)methyl Acetate], the IC50 in assay [2] is 39.8 nM. The same measure, in the same setting: the same measure for `COCn1nnc(-c2ccccc2-c2ccc(SC(C)(C)C)c(NC(=O)Cc3ccc(C)cc3)c2)n1` [Example 59, N-(4-(tert-butylthio)-2′-(2-(methoxymethyl)-2H-tetrazol-5-yl)-[1,1′-biphenyl]-3-yl)-2-(p-tolyl)acetamide]: 398 nM; for `COCn1nnnc1-c1ccccc1-c1ccc(SC(C)(C)C)c(NC(=O)Cc2ccc(C)cc2)c1` [Example 60, N-(4-(tert-butylthio)-2′-(1-(methoxymethyl)-1H-tetrazol-5-yl)-[1,1′-biphenyl]-3-yl)-2-(p-tolyl)acetamide]: 63.1 nM; for `Cc1ccc(CC(=O)Nc2cc(-c3ccccc3-c3nnn(C)n3)ccc2SC(C)(C)C)cc1` [Example 61, N-(4-(tert-butylthio)-2′-(2-methyl-2H-tetrazol-5-yl)-[1,1′-biphenyl]-3-yl)-2-(p-tolyl)acetamide]: 631 nM. On to `Cc1ccc(CC(=O)Nc2cc(-c3ccccc3-c3nnnn3C)ccc2SC(C)(C)C)cc1` [Example 62, N-(4-(tert-butylthio)-2′-(1-methyl-1H-tetrazol-5-yl)-[1,1′-biphenyl]-3-yl)-2-(p-tolyl)acetamide], for which the IC50 in assay [2] was 501 nM.
